Values after ≈ are worked out from the molar mass of the structure shown. Peptide text beside a SMILES is read from it.
What was measured:
[1] = tested on: V. vulnificus; type: cell-based, Vibrio vulnificus; conditions: 5 min with 100 µM ampicillin or 4 µM SMAP-29D, relative to PBS control cells
Protocol: (§1) The number of CFU of E. cloacae 4080 were quantified as a function of time of incubation with a 2 µM concentration of the individual peptides. In the reactions with kanamycin (Kan), 25 µg/ml of kanamycin sulfate was used. […] The initial inoculum was 10^6 CFU in LB. […] (D to F) Fluorescence microscopy of V. vulnificus cells. […] An enlarged image of a single cell is highlighted in the boxed region. White arrows denote bulges extending from the bacterial membrane. […] Bacterial DNA is stained with DAPI (blue). […] The fate of cellular cytoplasmic contents was tracked following expression of a FliM-tdTomato fusion protein (red).

[2] = tested on: V. cholerae; type: cell-based, Vibrio cholerae; conditions: 5 min with 100 µM ampicillin or 4 µM SMAP-29D, relative to PBS control cells
Protocol: as §1

[3] = tested on: Klebsiella pneumoniae
Protocol: (§2) The bacterial species tested are Klebsiella pneumoniae (K. p.), Serratia marcescens (S. m.), Enterobacter cloacae (E. cl.), Escherichia coli (E. c.), and Pseudomonas aeruginosa (P. a.). MICs were determined by the microdilution assay. […] The results are the median values of at least three independent assays.
(§3) Antimicrobial activity was determined using the broth microdilution method based on the guidelines of the Clinical and Laboratory Standards Institute (CLSI) ([39]), using cation-adjusted Mueller-Hinton broth (CAMHB) as the testing medium. Reference Gram-positive and Gram-negative bacteria were tested, including both enteric and Pseudomonas aeruginosa strains. Each MIC was determined in at least three independent assays.

[4] = tested on: E. faecalis
Protocol: as §3

[5] = tested on: Serratia marcescens
Protocol: as §2, §3

[6] = tested on: V. angustum; experiment: Bacterial killing, colony formation (CFU); type: cell-based; conditions: 2 µM peptide, 30 min incubation
[7] = tested on: Enterobacter cloacae
Protocol: as §2, §3

[8] = tested on: S. aureus
Protocol: as §3

[9] = tested on: E. cloacae 4080; experiment: Bacterial killing, colony formation (CFU); type: cell-based, Enterobacter cloacae
Protocol: The number of CFU of E. cloacae 4080 were quantified as a function of time of incubation with a 2 µM concentration of the individual peptides. In the reactions with kanamycin (Kan), 25 µg/ml of kanamycin sulfate was used. […] The initial inoculum was 10^6 CFU in LB.

[10] = tested on: 19 Gram-negative strains
Protocol: (A) Sequences of the cathelicidins, the numbers of bacterial strains killed, and hRBC lysis by the cathelicidins. […] The bacterial species tested are Klebsiella pneumoniae (K. p.), Serratia marcescens (S. m.), Enterobacter cloacae (E. cl.), Escherichia coli (E. c.), and Pseudomonas aeruginosa (P. a.). MICs were determined by the microdilution assay. […] The results are the median values of at least three independent assays.
We tested a panel of cathelicidins for inhibiting growth of 19 Gram-negative strains from the family Enterobacteriaceae and the nonfermentative bacteria. The species tested were Enterobacter cloacae ([2]), Escherichia coli ([5]), Klebsiella pneumoniae ([4]), Pseudomonas aeruginosa ([4]), and Serratia marcescens ([4]). All of the strains selected have been characterized for their antibiotic resistance profiles.
as §3

[11] = tested on: Pseudomonas aeruginosa
Protocol: as §2, §3

[12] = tested on: E. coli; type: cell-based, Escherichia coli; conditions: 2 µM peptide
Protocol: A total of 1 × 10^5 CFU of the bacteria were incubated for 30 min with the concentration of peptide or colistin shown. Approximately 500 CFU was then added as a droplet onto nonselective media for 18 h. […] The number shown is the median value of three or four independent assays. The number in parentheses is the standard deviation of all of the assays. […] The numbers are the means of three independent assays, and those in parentheses are the range for 1 standard deviation.
Incubation time: 0 min 5 min 30 min

[13] = tested on: K. pneumoniae; experiment: Bacterial killing, colony formation (CFU); type: cell-based, Klebsiella pneumoniae
Protocol: A total of 1 × 10^5 CFU of the bacteria were incubated for 30 min with the concentration of peptide or colistin shown. Approximately 500 CFU was then added as a droplet onto nonselective media for 18 h. […] The number shown is the median value of three or four independent assays. The number in parentheses is the standard deviation of all of the assays. […] (C) Quantitative analysis of the viable colonies formed by colistin-resistant bacteria. […] The numbers are the means of three independent assays, and those in parentheses are the range for 1 standard deviation.

[14] = tested on: Escherichia coli
Protocol: as §2, §3

[15] = tested on: V. fischeri; experiment: Bacterial killing, colony formation (CFU); type: cell-based; conditions: 2 µM peptide, 30 min incubation
[16] = broth microdilution, CAMHB, at least three independent assays
[17] = 2 µM peptide, 30 min incubation

## CC1(C)S[C@@H]2[C@H](NC(=O)[C@H](N)c3ccccc3)C(=O)N2[C@H]1C(=O)O [ampicillin]
[1]
  reduction in CFU, V. vulnificus: less than 1 log10 unit
[2]
  reduction in CFU, V. cholerae: less than 1 log10 unit

## CC[C@H](C)[C@H](NC(=O)[C@@H](NC(=O)[C@@H]1CCCN1C(=O)[C@H](CO)NC(=O)[C@H](CC(C)C)NC(=O)[C@H](CCCCN)NC(=O)[C@H](CCCCN)NC(=O)[C@H](Cc1ccccc1)NC(=O)[C@H](CC(C)C)NC(=O)[C@H](CCCCN)NC(=O)[C@H](CCCCN)NC(=O)[C@H](CC(C)C)NC(=O)[C@H](CCCCN)NC(=O)[C@H](CCCCN)NC(=O)[C@H](CCCNC(=N)N)NC(=O)[C@H](CC(C)C)NC(=O)[C@H](CCCNC(=N)N)NC(=O)[C@H](CCCCN)NC(=O)[C@H](Cc1ccccc1)NC(=O)[C@H](CCCNC(=N)N)NC(=O)CN)C(C)C)C(=O)N1CCC[C@H]1C(=O)N[C@@H](CC(C)C)C(=O)N[C@@H](CC(C)C)C(=O)N[C@@H](Cc1c[nH]cn1)C(=O)N[C@@H](CC(C)C)C(=O)NCC(=O)O [BMAP-27B] (H-GRFKRLRKKLKKLFKKLSPVIPLLHLG-OH)
[3]
  # strains inhibited at 16 µg/ml peptide K. p.: 4/4
[4]
  MIC E. faecalis 29212: >32 µg/mL
  MIC E. faecalis 51299: >32 µg/mL
[5]
  # strains inhibited at 16 µg/ml peptide S. m.: 3/3
[6]
  CFU/ml (SD) V. angustum, 30 min: 27 CFU/ml
  Fold redu. from To, V. angustum, 30 min: > 88,460 fold
[7]
  # strains inhibited at 16 µg/ml peptide E. cl.: 2/2
[7]; [16]
  MIC E. cloacae 4092: 4 µg/mL (≈ 1.24 µM)
[8]
  MIC S. aureus 25923: 32 µg/mL (≈ 9.95 µM)
  MIC S. aureus 29213: 32 µg/mL (≈ 9.95 µM)
[9]
  Fold redu. from To, En. cloacae 4080, 5 min: 2400
  Fold redu. from To, En. cloacae 4080, 30 min: > 19,200
[9]; 2 µM peptide (sub-heading; title says 1 µM), 5 min incubation
  CFU/ml (SD) En. cloacae 4080, 5 min: < 200 CFU/ml
[9]; 2 µM peptide, 120-min incubation, E. cloacae
  reduction in CFU, 120 min: > 4 log10 unit
[9]; [17]
  CFU/ml (SD) En. cloacae 4080, 30 min: < 25 CFU/ml
[10]
  No. of strains inhibited at 16 µg/ml/total no. of strains: 19/19
[11]
  # strains inhibited at 16 µg/ml peptide P. a.: 4/4
  MIC P. aeruginosa 4083: 4 µg/mL (≈ 1.24 µM)
  MIC P. aeruginosa PAO1: 4 µg/mL (≈ 1.24 µM)
[11]; [16]
  MIC P. aeruginosa PAO1 ΔOprD: 4 µg/mL (≈ 1.24 µM)
[12]; 5 min incubation
  CFU/ml (SD) E. coli IU-342, 5 min: < 200 CFU/ml
  Fold redu. from To, E. coli IU-342, 5 min: 850 fold
[12]; 30 min incubation
  CFU/ml (SD) E. coli IU-342, 30 min: < 25 CFU/ml
  Fold redu. from To, E. coli IU-342, 30 min: > 6,800 fold
[13]; 2 µM peptide, 5 min incubation
  CFU/ml (SD) K. pneumonia 8893, 5 min: < 200 CFU/ml
  Fold redu. from To, K. pneumonia 8893, 5 min: 1050 fold
  Fold redu. from To, K. pneumonia C-2, 5 min: 25 fold
[13]; [17]
  CFU/ml (SD) K. pneumonia 8893, 30 min: < 25 CFU/ml
  CFU/ml (SD) K. pneumonia C-2, 30 min: 50 CFU/ml
  Fold redu. from To, K. pneumonia 8893, 30 min: > 8,400 fold
  Fold redu. from To, K. pneumonia C-2, 30 min: > 13,000 fold
[13]; 2 µM, Fig. 5C (K. pneumoniae 59) and data not shown
  reduction in CFU, colistin-resistant K. pneumoniae: > 2 log10 unit
[14]
  # strains inhibited at 16 µg/ml peptide E. c.: 6/6
[14]; [16]
  MIC E. coli MC4100: 4 µg/mL (≈ 1.24 µM)
[15]
  CFU/ml (SD) V. fischeri, 30 min: < 20 CFU/ml
  Fold redu. from To, V. fischeri, 30 min: > 48,000 fold

— article PMC5030359, “Cathelicidin Antimicrobial Peptides with Reduced Activation of Toll-Like Receptor Signaling Have Potent Bactericidal Activity against Colistin-Resistant Bacteria” (mBio, 2016)
